PubChem BioAssay (NCI)
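Following 48 hours of exposure in 96-well plates, responses at five concentrations were used to interpolate endpoints linearly. GI50 = concentration required for 50% inhibition of growth. TGI: total growth inhibition.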

Legend:
Test in all cases: DTP human tumour cell line panel, 48 h
OVCAR-8 ovarian = system: OVCAR-8 ovarian
COLO 205 colon = system: COLO 205 colon
EKVX NSCLC = system: EKVX NSCLC
RXF 393 renal = system: RXF 393 renal
SK-MEL-28 melanoma = system: SK-MEL-28 melanoma
CCRF-CEM leukemia = system: CCRF-CEM leukemia
M14 melanoma = system: M14 melanoma
OVCAR-4 ovarian = system: OVCAR-4 ovarian
NCI/ADR-RES ovarian = system: NCI/ADR-RES ovarian
MDA-MB-435 = system: MDA-MB-435

Row | Structure (SMILES) | TGI (OVCAR-8 ovarian) | TGI (COLO 205 colon) | TGI (EKVX NSCLC) | TGI (RXF 393 renal) | TGI (SK-MEL-28 melanoma) | TGI (CCRF-CEM leukemia) | TGI (M14 melanoma) | TGI (OVCAR-4 ovarian) | GI50 (NCI/ADR-RES ovarian) | TGI (NCI/ADR-RES ovarian) | GI50 (OVCAR-8 ovarian) | GI50 (COLO 205 colon) | GI50 (EKVX NSCLC) | GI50 (SK-MEL-28 melanoma) | GI50 (OVCAR-4 ovarian) | GI50 (CCRF-CEM leukemia) | GI50 (M14 melanoma) | GI50 (MDA-MB-435) | TGI (MDA-MB-435) | GI50 (RXF 393 renal)
1 | CCC(C)CC(C)CC(C)/C=C(\C)C1=C(C)CC(C)(O)O1 (stereo not given) | > 100 µM | > 100 µM | > 100 µM | > 100 µM | > 100 µM | > 100 µM | > 100 µM | – | – | – | – | – | – | – | – | – | – | – | – | –
2 | COC1=CC(C2c3cc4c(cc3[C@@H](Nc3ccc(F)cc3)C3COC(=O)[C@H]23)OCO4)=CC(=O)C1=O (stereo not given in full) | > 51.4 µM | 41.5 µM | > 59.1 µM | > 100 µM | 45.8 µM | > 29 µM | 36.3 µM | > 61.2 µM | – | – | – | – | – | – | – | – | – | – | – | –
3 | C/C(CN1C(=O)c2ccccc2C1=O)=N\NS(=O)(=O)c1cccc(C(=O)O)c1 | > 100 µM | > 100 µM | > 100 µM | – | > 100 µM | > 100 µM | > 100 µM | > 100 µM | – | – | – | – | – | – | – | – | – | – | – | –
4 | O=C(O)CCNS(=O)(=O)c1ccc2ccccc2c1 | > 100 µM | > 100 µM | > 100 µM | – | > 100 µM | > 100 µM | > 100 µM | > 100 µM | – | – | – | – | – | – | – | – | – | – | – | –
5 | COc1ccc(C(=O)c2cc(C)c(OC)c(C)c2)c(OC)c1NC(C)=O | > 100 µM | 1.28 µM | > 100 µM | – | > 100 µM | > 100 µM | > 100 µM | > 100 µM | 131 nM | 0.573 µM | 419 nM | 299 nM | 251 nM | 504 nM | 7680 nM | 2400 nM | 150 nM | – | – | –
6 | c1ccc(OCCC[P+](c2ccccc2)(c2ccccc2)c2ccccc2)cc1 | 12.8 µM | 3.47 µM | – | – | 13.4 µM | 18.1 µM | 18.1 µM | 17.7 µM | > 100000 nM | > 100 µM | 1830 nM | 970 nM | – | 1090 nM | 486 nM | 1850 nM | 2530 nM | 481 nM | 10.3 µM | –
7 | CCC[CH2][Sn]([CH2]CCC)([S]C#N)[S]C#N | 3.54 µM | 3.77 µM | 2.99 µM | 1.33 µM | 2.15 µM | 0.869 µM | 3.48 µM | 2.74 µM | – | – | 1530 nM | 1400 nM | 1360 nM | 753 nM | 1340 nM | 224 nM | 1490 nM | – | – | 342 nM
8 | C#CC1=CC(=O)C(OC)=CC1=O | – | > 100 µM | 68.1 µM | 30.1 µM | > 100 µM | 30.8 µM | 39.1 µM | – | – | > 100 µM | – | – | – | – | – | – | – | – | 34.8 µM | –
9 | CC(C)c1cc(C(C)C)c(S(=O)(=O)N=[N+]=[N-])c(C(C)C)c1 | > 100 µM | > 100 µM | – | > 100 µM | > 100 µM | > 100 µM | > 100 µM | > 100 µM | – | – | – | – | – | – | – | – | – | – | – | –
10 | Cc1ccc(C)c(N2C(=O)C(=O)C(c3nc4ccccc4o3)C(=O)C2=O)c1 | > 100 µM | 95.4 µM | > 100 µM | > 100 µM | > 100 µM | > 100 µM | > 100 µM | > 100 µM | – | – | – | – | – | – | – | – | – | – | – | –
11 | CC1=C(SC#N)S(=O)(=O)N(c2ccccc2)C(C)=C1SC#N | > 100 µM | – | – | > 100 µM | > 100 µM | 45.8 µM | – | > 100 µM | – | – | – | – | – | – | – | – | – | – | – | –
